Experimental data from patent publication US20140142000A1, “MICROFLUIDIC ARRAY PLATFORM FOR SIMULTANEOUS CELL CULTURE UNDER OXYGEN TENSIONS” (Academia Sinica, priority 2012, published 2014).

What was measured:
[1] = test system: A549 cells; assay: PrestoBlue normalized cell viability of A549 cells treated with TPZ under various oxygen tensions on the array platform (48 hours); format: cell-based, human
Description: In the experiments, 1 M NaOH and pyrogallol solutions with concentrations of 0, 190, and 500 μg ml^−1 at flow rates of 20 μml^−1 were used to set the oxygen tensions inside the cell culture wells as normoxia (˜20%), 7.0%, and 1.4%, respectively, and the drug, TPZ, with concentrations of 0, 10, 25, 50, and 100 mM were applied. The cells were cultured under different conditions, including: 20% oxygen and 0 mM TPZ; 20% oxygen and 50 mM TPZ; and 1.4% oxygen and 50 mM TPZ, for 48 hours. […] Furthermore, the cell viability was checked using a live/dead stain solution containing calcein AM (1 mM) and ethidium homodimer-1 (2 mM) from LIVE/DEAD Viability/Cytotoxicity Kit (L3224, Invitrogen). […] To quantitatively characterize the cell viabilities of A549 cells treated with TPZ under various oxygen tensions, the PrestoBlue cell viability assays were performed in the experiments. […] In order to minimize variations between the experiments, the measured fluorescence intensity from each well was normalized to the average intensity of the cell culture wells, in which the cells were cultured under normoixa without TPZ (i.e. 0 mM TPZ). To compare the differences between the normalized cell viabilities for various oxygen tensions, statistical analysis, unpaired, two-tailed Student's t-tests were performed in this study.

[2] = in vitro; format: cell-based; conditions: human
Description: To examine the performance of the array on a chip form for cell culture, carcinomic human alveolar basal epithelial cells (A549, ATCC, Manassas, Va., USA) were utilized. A549 cells were cultured in F-12K medium (Gibco 21127, Invitrogen Co., Carlsbad, Calif., USA) with 10% v/v fetal bovine serum (FBS) (Gibco 10082, Invitrogen Carlsbad, Calif., USA) and 1% v/v antibiotic-antimycotic (Gibco 15240, Invitrogen, Carlsbad, Calif., USA). The stocks were maintained under 5% CO2 in T25 cell culture flasks (Nunc 156367, Thermo Scientific Inc., Rochester, N.Y., USA), and passaged by dissociation with 0.25% trypsin-EDTA (Gibco 25200, Invitrogen, Carlsbad, Calif., USA). […]
For oxygen scavenging, pyrogallol (benzene-1,2,3-triol, C6H6O3) (87-66-1, Alfa Aesar, Ward Hill, Mass., USA) and sodium hydroxide (NaOH) (30620, Sigma-Aldrich, St Louis, Mo., USA) were introduced into the microfluidic channels to control oxygen tensions. The oxygen tensions in the cell culture wells were calibrated by measuring the relative fluorescence lifetime of an oxygen sensitive fluorescence dye, tris(2,2′-bypyridyl) ruthenium […] chloride (50525-27-4, Acros Organics, Geel, Belgium), while flowing chemicals in the underneath channels with various concentrations using the experimental setup as shown in FIG. 2(a). […]

[3] = test system: A 549 cells; assay: Fluorescence-based cell viability in conventional 96-well plates with oxygen tension-controlled incubator, compared with the device; parameters: species or system human; conditions: 96-well plate, 48 hours, normoxia and hypoxia
Description: A comparison of cell viabilities under various drug treatments in normoxia and hypoxia conditions using the cell culture array platform according to the invention and conventional 96-well plates (167008, Nunclon DELTA Surface, Nunc) with an oxygen tension-controlled cell incubator (Heracell 240i, Thermo Scientific). In the well plate experiments, approximate 5000 A 549 cells were seeded into each well. The cells with 80 μl medium were incubated overnight in the cell incubator to ensure the cell attachment onto the wells before the drug treatments, and 20 μl drug solutions with various TPZ concentrations were than added into the wells. The cells were incubated with drug-contained medium for 48 hours. After the testing, the cell viabilities were estimated using the fluorescence-based cell viability assay, and read by the plate reader.

[4] = test system: A549 cells; assay: Cell morphology and attachment of A549 cells cultured with TPZ on the array platform; format: cell-based, human; conditions: 48 hours
Description: In the experiments, 1 M NaOH and pyrogallol solutions with concentrations of 0, 190, and 500 μg ml^−1 at flow rates of […] were used to set the oxygen tensions inside the cell culture wells as normoxia (˜20%), 7.0%, and 1.4%, respectively, and the drug, TPZ, with concentrations of […] were applied. The cells were cultured under different conditions, including: 20% oxygen and 0 mM TPZ; 20% oxygen and 50 mM TPZ; and 1.4% oxygen and 50 mM TPZ, for 48 hours. […] Furthermore, the cell viability was checked using a live/dead stain solution containing calcein AM (1 mM) and ethidium homodimer-1 (2 mM) from LIVE/DEAD Viability/Cytotoxicity Kit (L3224, Invitrogen). The great viability (>95% by analyzing four fluorescence images taken in different cell culture wells using an image analysis software MetaMorph from Molecular Devices, Sunnyvale, Calif.) of the cells cultured under the control conditions for 48 hours confirmed the great cell compatibility of the multi-layer PDMS microfluidic device according to the invention. […] To quantitatively characterize the cell viabilities of A549 cells treated with TPZ under various oxygen tensions, the PrestoBlue cell viability assays were performed in the experiments. The developed microfluidic array platform can be directed placed into a microplate reader commonly used in biological labs for assay readout. […]

SMILES: Nc1n[n+]([O-])c2ccccc2[n+]1[O-] [TPZ, 3-amino-1,2,4-benzotriazine-1,4-dioxide]
- normalized cell viability at 1.4% oxygen tension versus 7.0% oxygen tension [1]: lower statistically than that for the 7.0% oxygen tension condition
- normalized cell viability, normoxia higher than low oxygen tensions (7.0% and 1.4%) ([1]; TPZ concentrations higher than 25 mM, normalized to normoxia without TPZ): more than 20%
- cytotoxicity at 12 h [2]: > 20%
- hypoxia-activated cytotoxicity in well plates compared with the device [3]: more hypoxia-activated cytotoxicity
- cell morphology / attachment ([4]; 1.4% oxygen and 50 mM TPZ): more cells became rounded and detached from the substrate
- cell morphology / attachment ([4]; 20% oxygen and 50 mM TPZ): the shapes of the cells became rounded and some cells detached from the substrate
